Our source for the IC50 and inhibition values is ChEMBL document CHEMBL1221282, “The action of bromoconduritol on ER glucosidase II” (Bioorg Med Chem Lett, 2010).

Structures are written as SMILES.

The nature of assay [1]: Inhibition of rat liver glucosidase 2 assessed as inhibition of conversion of G1M9 to M9.
Assay [2] is described as follows: Inhibition of rat liver glucosidase 2 assessed as inhibition of conversion of G2M9 to G1M9.
The species entered for assay [3] is Rattus norvegicus. As to the kind of experiment: Inhibition of rat liver glucosidase 2 assessed as inhibition of consumption at 100 uM after 1 hr.
The species named for assay [4] is Rattus norvegicus. As to the kind of experiment: Inhibition of rat liver glucosidase 2 assessed as inhibition of consumption at 100 uM after 24 hrs.
The species entered for assay [5] is Rattus norvegicus. As to the kind of experiment: Inhibition of rat liver glucosidase 2 assessed as inhibition of consumption at 100 uM after 20 mins.

As for `O[C@H]1[C@H](O)C=CC(Br)[C@@H]1O` (some centres undefined) [BROMOCONDURITOL], the IC50 in assay [1] came out at 41 µM; in assay [2], 262 µM. For the same compound, the inhibition in assay [3] was 20%; in assay [4], less than 10%; in assay [5], 36%.
Regarding `O[C@H]1[C@H](O)[C@@H](O)CN2CC[C@H](O)[C@H]12` [CASTANOSPERMINE], the IC50 turned out to be 1.1 µM in assay [1] and 1.3 µM in assay [2].
Regarding `OC[C@H]1NC[C@H](O)[C@@H](O)[C@@H]1O` [DUVOGLUSTAT], the IC50 in assay [1] was determined as 11.2 µM; in assay [2] it was 8.2 µM.
